The source of these data is patent US20100093702A1, “METHYLENE AMINES OF THIENO[2,3-d]PYRIMIDINE AND THEIR USE AS ADENOSINE A2a RECEPTOR ANTAGONISTS” (priority 2008, published 2010).

For test [1], the target named is T1, human adenosine A2a receptor (Homo sapiens, UniProt P29274).
T1 construct: expressed in transfected cells; host or cells: CHO-K1
As to the kind of experiment: Adenosine A2a Receptor Functional Assay (A2AGAL2). It is filed as cell-based. As to conditions: CHO-K1 cells, cAMP inducible beta-galactosidase reporter, 15 nM NECA agonist challenge. The protocol:
Adenosine A2a Receptor Functional Assay (A2AGAL2)
To initiate the functional assay, cryopreserved CHO-K1 cells overexpressing the human adenosine A2a receptor and containing a cAMP inducible beta-galactosidase reporter gene were thawed, centrifuged, DMSO containing media removed, and then seeded with fresh culture media into clear 384-well tissue culture treated plates (BD #353961) at a concentration of 10K cells/well. Prior to assay, these plates were cultured for two days at 37° C., 5% CO2, 90% Rh. On the day of the functional assay, culture media was removed and replaced with 45 uL assay medium (Hams/F-12 Modified (Mediatech # 10-080CV) supplemented w/0.1% BSA). Test compounds were diluted and 11 point curves created at a 1000× concentration in 100% DMSO. Immediately after addition of assay media to the cell plates, 50 nL of the appropriate test compound antagonist or agonist control curves were added to cell plates using a Cartesian Hummingbird. Compound curves were allowed to incubate at room temperature on cell plates for approximately 15 minutes before addition of a 15 nM NECA (Sigma E2387) agonist challenge (5 uL volume). A control curve of NECA, a DMSO/Media control, and a single dose of Forskolin (Sigma F3917) were also included on each plate. After additions, cell plates were allowed to incubate at 37° C., 5% CO2, 90% Rh for 5.5-6 hours. After incubation, media was removed, and cell plates were washed 1×50 uL with DPBS w/o Ca & Mg (Mediatech 21-031-CV). Into dry wells, 20 uL of 1× Reporter Lysis Buffer (Promega E3971 (diluted in dH2O from 5× stock)) was added to each well and plates frozen at −20° C. overnight. For β-galactosidase enzyme calorimetric assay, plates were thawed out at room temperature and 20 μL 2× assay buffer (Promega) was added to each well. Color was allowed to develop at 37° C., 5% CO2, 90% Rh for 1-1.5 h or until reasonable signal appeared. The calorimetric reaction was stopped with the addition of 60 μL/well 1M sodium carbonate. Plates were counted at 405 nm on a SpectraMax Microplate Reader (Molecular Devices). Data was analyzed in Microsoft Excel and IC/EC50 curves were fit using a standardized macro.

Test [2] concerns the target T2, human adenosine A1 receptor (Homo sapiens, UniProt P30542).
T2 construct: expressed in transfected cells; host or cells: CHO-K1
T2 sequence (P30542 1-326): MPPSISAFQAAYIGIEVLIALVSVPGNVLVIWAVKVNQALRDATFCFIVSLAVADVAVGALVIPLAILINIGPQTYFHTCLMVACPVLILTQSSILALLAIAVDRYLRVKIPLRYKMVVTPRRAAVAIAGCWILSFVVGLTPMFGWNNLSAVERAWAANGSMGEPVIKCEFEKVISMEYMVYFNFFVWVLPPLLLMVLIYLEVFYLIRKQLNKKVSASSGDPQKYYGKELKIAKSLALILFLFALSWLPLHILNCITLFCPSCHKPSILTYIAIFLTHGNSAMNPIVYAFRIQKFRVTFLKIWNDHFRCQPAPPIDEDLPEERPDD
As to the kind of experiment: Adenosine A1 Receptor Functional Assay (A1GAL2). It is filed as cell-based. Conditions: CHO-K1 cells, cAMP inducible beta-galactosidase reporter, 4 nM r-PIA/1 uM Forskolin challenge. As to the method:
Adenosine A1 Receptor Functional Assay (A1GAL2)
To initiate the functional assay, cryopreserved CHO-K1 cells overexpressing the human adenosine A1 receptor and containing a cAMP inducible beta-galactosidase reporter gene were thawed, centrifuged, DMSO containing media removed, and then seeded with fresh culture media into clear 384-well tissue culture treated plates (BD #353961) at a concentration of 10K cells/well. Prior to assay, these plates were cultured for two days at 37° C., 5% CO2, 90% Rh. On the day of the functional assay, culture media was removed and replaced with 45 uL assay medium (Hams/F-12 Modified (Mediatech # 10-080CV) supplemented w/0.1% BSA). Test compounds were diluted and 11 point curves created at a 1000× concentration in 100% DMSO. Immediately after addition of assay media to the cell plates, […] of the appropriate test compound antagonist or agonist control curves were added to cell plates using a Cartesian Hummingbird. Compound curves were allowed to incubate at room temperature on cell plates for approximately 15 minutes before addition of a 4 nM r-PIA (Sigma P4532)/1 uM Forskolin (Sigma F3917) agonist challenge (5 uL volume). A control curve of r-PIA in 1 uM Forskolin, a DMSO/Media control, and a single dose of Forskolin were also included on each plate. After additions, cell plates were allowed to incubate at 37° C., 5% CO2, 90% Rh for 5.5-6 hours. After incubation, media was removed, and cell plates were washed 1×50 uL with DPBS w/o Ca & Mg (Mediatech 21-031-CV).
Into dry wells, 20 uL of 1× Reporter Lysis Buffer (Promega E3971 (diluted in dH2O from 5× stock)) was added to each well and plates frozen at −20° C. overnight. For β-galactosidase enzyme calorimetric assay, plates were thawed out at room temperature and 20 μL 2× assay buffer (Promega) was added to each well. Color was allowed to develop at 37° C., 5% CO2, 90% Rh for 1-1.5 h or until reasonable signal appeared. The calorimetric reaction was stopped with the addition of 60 μL/well 1M sodium carbonate. Plates were counted at 405 nm on a SpectraMax Microplate Reader (Molecular Devices). Data was analyzed in Microsoft Excel and IC/EC50 curves were fit using a standardized macro.

T1 sequence (P29274 whole entry): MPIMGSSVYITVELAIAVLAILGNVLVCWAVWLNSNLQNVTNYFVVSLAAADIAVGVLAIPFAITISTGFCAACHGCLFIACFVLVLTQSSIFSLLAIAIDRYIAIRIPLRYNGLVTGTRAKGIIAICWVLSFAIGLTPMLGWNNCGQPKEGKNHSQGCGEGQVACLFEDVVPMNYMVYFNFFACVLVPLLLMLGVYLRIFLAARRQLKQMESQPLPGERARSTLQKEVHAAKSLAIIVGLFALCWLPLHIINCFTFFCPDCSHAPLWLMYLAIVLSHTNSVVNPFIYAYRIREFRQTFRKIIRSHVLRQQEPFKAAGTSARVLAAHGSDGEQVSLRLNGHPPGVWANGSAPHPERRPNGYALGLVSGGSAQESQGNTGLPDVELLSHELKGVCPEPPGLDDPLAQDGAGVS

On to `CCc1ccc(-c2nc(N)c3cc(CN4CCOCC4)sc3n2)o1` [Example 8, 2-(5-Ethyl-furan-2-yl)-6-morpholin-4-ylmethyl-thieno[2,3-d]pyrimidin-4-ylamine], for which the Ki in test [1] is 78.2 nM; in test [2], greater than 610 nM.

Regarding `Cc1csc(-c2nc(N)c3cc(CN4[C@H](C)CCC[C@@H]4C)sc3n2)n1` [Example 9, 6-(2,6-Dimethyl-piperidin-1-ylmethyl)-2-(4-methyl-thiazol-2-yl)-thieno[2,3-d]pyrimidin-4-ylamine], the figures for the Ki in test [1] and in test [2] were 89.4 nM and 297 nM, respectively.

On to `CC(C)c1ccc(-c2nc(N)c3cc(CN4[C@H](C)CCC[C@@H]4C)sc3n2)o1` [Example 10, 6-(2,6-Dimethyl-piperidin-1-ylmethyl)-2-(5-isopropyl-furan-2-yl)-thieno[2,3-d]pyrimidin-4-ylamine], for which the Ki in test [1] amounted to 17.3 nM; in test [2] it was 144 nM.

In the case of `CCc1ccc(-c2nc(N)c3cc(CN4[C@H](C)CCC[C@@H]4C)sc3n2)o1` [Example 11, 6-(2,6-Dimethyl-piperidin-1-ylmethyl)-2-(5-ethyl-furan-2-yl)-thieno[2,3-d]pyrimidin-4-ylamine], the Ki came to 24.9 nM in test [1] and 194 nM in test [2].

Turning to `C[C@@H]1CCC[C@H](C)N1Cc1cc2c(N)nc(-c3ccc(C4CC4)o3)nc2s1` [Example 12, 2-(5-Cyclopropyl-furan-2-yl)-6-(2,6-dimethyl-piperidin-1-ylmethyl)-thieno[2,3-d]pyrimidin-4-ylamine], the Ki in test [1] worked out at 114 nM; in test [2], 333 nM.

As for `C[C@@H]1CCC[C@H](C)N1Cc1cc2c(N)nc(-c3ccc(C(C)(C)C)s3)nc2s1` [Example 13, 2-(5-tert-Butyl-thiophen-2-yl)-6-(2,6-dimethyl-piperidin-1-ylmethyl)-thieno[2,3-d]pyrimidin-4-ylamine], the Ki in test [1] was greater than 2340 nM; in test [2] it was greater than 927 nM.

For the compound `CC(C)(C)c1ccc(-c2nc(N)c3cc(CN4CCOCC4)sc3n2)s1` [Example 14, 2-(5-tert-Butyl-thiophen-2-yl)-6-morpholin-4-ylmethyl-thieno[2,3-d]pyrimidin-4-ylamine], the Ki in test [1] was greater than 2340 nM; in test [2] it was greater than 927 nM.

With `Cc1csc(-c2nc(N)c3cc(CN4CCOCC4)sc3n2)n1` [Example 15, 2-(4-Methyl-thiazol-2-yl)-6-morpholin-4-ylmethyl-thieno[2,3-d]pyrimidin-4-ylamine], the Ki is 208 nM in test [1] and greater than 927 nM in test [2].

As to `Nc1nc(-c2ccon2)nc2sc(CN3CCOCC3)cc12` [Example 16, 2-Isoxazol-3-yl-6-morpholin-4-ylmethyl-thieno[2,3-d]pyrimidin-4-ylamine], the figures for the Ki in test [1] and in test [2] were 1010 nM and 678 nM, respectively.

As to `C[C@@H]1CN(Cc2cc3c(N)nc(-c4cccc(C#N)c4)nc3s2)C[C@H](C)O1` [Example 17, 3-[4-Amino-6-(2,6-dimethyl-morpholin-4-ylmethyl)-thieno[2,3-d]pyrimidin-2-yl]-benzonitrile], the Ki worked out at 150 nM in test [1] and 1070 nM in test [2].

As for `C[C@@H]1CCC[C@H](C)N1Cc1cc2c(N)nc(-c3ccon3)nc2s1` [Example 18, 6-(2,6-Dimethyl-piperidin-1-ylmethyl)-2-isoxazol-3-yl-thieno[2,3-d]pyrimidin-4-ylamine], the results for the Ki in test [1] and in test [2] were 130 nM and 504 nM, respectively.

In the case of `C[C@@H]1CCC[C@H](C)N1Cc1cc2c(N)nc(-c3ccc(Br)o3)nc2s1` [Example 19, 2-(5-Bromo-furan-2-yl)-6-(2,6-dimethyl-piperidin-1-ylmethyl)-thieno[2,3-d]pyrimidin-4-ylamine], the Ki in test [1] is 12 nM; in test [2], 39.6 nM.

Take `N#Cc1cccc(-c2nc(N)c3cc(CN4CCCC4c4ccccc4)sc3n2)c1` (centres unmarked) [Example 20, 3-[4-Amino-6-(2-phenyl-pyrrolidin-1-ylmethyl)-thieno[2,3-d]pyrimidin-2-yl]-benzonitrile]: the Ki turned out to be 154 nM in test [1] and 762 nM in test [2].

On to `CC(C)c1ccc(-c2nc(N)c3cc(CN4CCOCC4)sc3n2)o1` [Example 21, 2-(5-Isopropyl-furan-2-yl)-6-morpholin-4-ylmethyl-thieno[2,3-d]pyrimidin-4-ylamine], for which the Ki in test [1] was greater than 1360 nM; in test [2] it was greater than 594 nM.

As to `Nc1nc(-c2ccc(C3CC3)o2)nc2sc(CN3CCOCC3)cc12` [Example 22, 2-(5-Cyclopropyl-furan-2-yl)-6-morpholin-4-ylmethyl-thieno[2,3-d]pyrimidin-4-ylamine], the Ki is 958 nM in test [1] and greater than 1070 nM in test [2].

Regarding `C[C@@H]1CCC[C@H](C)N1Cc1cc2c(N)nc(-c3cccc(C#N)c3)nc2s1` [Example 23, 3-[4-Amino-6-(2,6-dimethyl-piperidin-1-ylmethyl)-thieno[2,3-d]pyrimidin-2-yl]-benzonitrile], the Ki is 64.5 nM in test [1] and 464 nM in test [2].

`Nc1nc(-c2nccs2)nc2sc(CN3CCOCC3)cc12` [Example 25, 6-Morpholin-4-ylmethyl-2-thiazol-2-yl-thieno[2,3-d]pyrimidin-4-ylamine]: the Ki in test [1] worked out at 245 nM; in test [2] it was 2730 nM.

With `Nc1nc(C2CC2)nc2sc(CN3CCCC3)cc12` [Example 43, 2-Cyclopropyl-6-pyrrolidin-1-ylmethyl-thieno[2,3-d]pyrimidin-4-ylamine], the Ki is 404 nM in test [1] and greater than 10000 nM in test [2].

Turning to `Nc1nc(-c2cc(F)cc(F)c2)nc2sc(CN3CCOCC3)cc12` [Example 47, 2-(3,5-Difluoro-phenyl)-6-morpholin-4-ylmethyl-thieno[2,3-d]pyrimidin-4-ylamine], the results for the Ki in test [1] and in test [2] were 349 nM and 2300 nM, respectively.

Regarding `Nc1nc(-c2cccc(Cl)c2)nc2sc(CN3CCC(F)CC3)cc12` [Example 48, 2-(3-Chloro-phenyl)-6-(4-fluoro-piperidin-1-ylmethyl)-thieno[2,3-d]pyrimidin-4-ylamine], the figures for the Ki in test [1] and in test [2] were 733 nM and 855 nM, respectively.

With `Nc1nc(-c2cccc(Cl)c2)nc2sc(CN3CCOCC3)cc12` [Example 49, 2-(3-Chloro-phenyl)-6-morpholin-4-ylmethyl-thieno[2,3-d]pyrimidin-4-ylamine], the Ki in test [1] came out at 117 nM; in test [2] it was 785 nM.

In the case of `Nc1nc(-c2ccc(F)c(F)c2)nc2sc(CN3CCOCC3)cc12` [Example 50, 2-(3,4-Difluoro-phenyl)-6-morpholin-4-ylmethyl-thieno[2,3-d]pyrimidin-4-ylamine], the Ki in test [1] worked out at 361 nM; in test [2], 2890 nM.
